Source: the METLIN SMRT retention time set (Domingo-Almenara et al. 2019)

Assay: gradient 5% acetonitrile 3 min, to 50% in 2 min, to 85% in 15 min, held 3 min, 100 µL/min
Conditions: column: Zorbax Extend-C18 2.1 x 50 mm; eluents: water / acetonitrile, 0.1% formic acid
In short: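 Pure standards were analyzed in mixtures of ~100 molecules using HPLC coupled to a quadrupole time-of-flight mass spectrometer, in both positive and negative ionization mode. Separation used a Zorbax Extend-C18 column (2.1 × 50 mm, 1.8 μm) at 100 μL/min, with water and acetonitrile each containing 0.1% formic acid. Dead and dwell volumes were 40 μL and 900 μL, and data were collected over 3 months. Retention time was read from computationally picked adduct peaks, each inspected manually.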

| Structure (SMILES) | RP-LC retention time [s] |
| --- | --- |
| Cc1nc2c(SCC(=O)Nc3ccc4c(c3)OCO4)nnc(-c3ccccc3)c2s1 | 847 |
| CC(C)CNC(=O)c1nn(-c2ccc(F)cc2)nc1CO | 888 |
| COc1cccc(CC(=O)NC2CCN(c3cc(-c4cccs4)[nH]n3)C2)c1 (stereo not drawn) | 658 |
| CSc1ccc(-c2nc3cnccn3c2Nc2ccc(C)cc2Br)cc1 | 1140 |
| C[C@@H](O)[C@H](NC(=O)c1ccc(C#Cc2ccc(CN3CCOCC3)cc2)cc1)C(=O)NO | 629 |
| CC(C)CCNC(=O)C1(CCO)CCN(c2ncccn2)C1 (stereo not drawn) | 614 |
| Cc1cc(N2CCN(C)CC2)n2nc(-c3ccc(C(C)(C)C)cc3)nc2n1 | 656 |
| Cc1cccc(C)c1-n1ccn(Cc2nc(-c3ccc(C(C)(C)C)cc3)no2)c(=O)c1=O | 1120 |
| CC(C)NC(=O)c1ccc(OCC2CCN(C(=O)c3cccs3)CC2)cc1 | 757 |
| CC(C)c1ccc(S(=O)(=O)N2CCC(C(=O)NCc3cscn3)CC2)cc1 | 805 |
| Cc1ccc(-c2cc3n(n2)CCCN(C(=O)c2ccccn2)C3)cc1 | 766 |
| COc1ccc(-c2cc3nn(CC(=O)Nc4ccc(Cl)cc4)c(=O)n3c(C)n2)cc1 | 974 |
| CCc1nc(-c2ccc(OC3CCN(CCc4ccccc4)C3)cc2)no1 (stereo not drawn) | 744 |
| Cc1ccc(Nc2cc(C)nc(N3CCN(C(=O)Nc4cccc(Cl)c4)CC3)n2)cc1 | 800 |
| CCc1ccccc1NC(=O)N1CCCC1c1cc(C)no1 (stereo not drawn) | 845 |
| COc1ccc(CN2C=C(C(=O)OCc3nc(-c4cccc(OC)c4)no3)C(C)=NS2(=O)=O)cc1 | 1130 |
| CCn1c(=O)c(N2CCN(C(=O)NCc3ccc(C)cc3)CC2)nc2ccccc21 | 927 |
| CN1CCN(C(CNS(=O)(=O)c2ccccc2F)c2ccsc2)CC1 (stereo not drawn) | 570 |
| O=C(CSc1ncnc2c1cnn2-c1ccc(F)cc1)Nc1nc2ccccc2s1 | 1020 |
| O=C1NCCCn2cc(S(=O)(=O)Nc3ccccc3)cc21 | 630 |
| COc1ccc(-c2nc(-c3ccc4c(c3)oc(=O)n4C(C)C)no2)cc1 | 1070 |
| CCCOc1nc2ccccc2nc1N1CCCC(C(=O)Nc2cccc(C(=O)OCC)c2)C1 (stereo not drawn) | 1340 |

| Structure (SMILES) | RP-LC retention time [s] |
| --- | --- |
| COc1ccc(N2CCN(c3ccc(-c4nc(-c5ccccc5)no4)cn3)CC2)cc1 | 1240 |
| O=C(NCCc1ccncc1)c1cnn(-c2ccccc2)n1 | 560 |
| Cc1cccc(C)c1Nc1c(-c2ccc(N3CCOCC3)cc2)nc2ncccn12 | 721 |
| CN1C(=O)C2(CCN(C(=O)COc3ccc(Cl)cc3)C2)c2ccccc21 (stereo not drawn) | 838 |
| CCn1c(CCNC(=O)c2cccc(F)c2)nc2cccnc21 | 616 |
| O=S1(=O)C[C@H](N2CCN(c3ccccn3)CC2)[C@@H](S(=O)(=O)c2ccc(Cl)cc2)C1 | 643 |
| COc1ccc2nc(C(=O)NCc3ccccc3Cl)cn2n1 | 830 |
| O=C(Cc1ccsc1)N1CCCn2nc(-c3ccc(Cl)cc3)cc2C1 | 931 |
| CCCc1ccc(-c2csc(NC(=O)c3ccc(C)o3)n2)cc1 | 1210 |
| O=C(Cn1ccc2ccc(N3CCOCC3)nc21)NCc1cccc(Cl)c1 | 909 |
| Cn1cc(CCN2CCN(S(=O)(=O)c3cccs3)CC2)c2cccnc21 | 604 |
| CCC(=O)N(CC(=O)N1CCc2sccc2C1COc1cccc(OC)c1)CC1CCCO1 (stereo not drawn) | 858 |
| COc1ccccc1N1CCN(c2nccc(-n3nc(C)cc3C)n2)CC1 | 1010 |
| Cc1cc(C)c(C(=O)N2CCC(CC(=O)NCCCN3CCCCCC3)CC2)[nH]1 | 594 |
| O=C(Nc1cccc(OCc2nnc(-c3ccccc3)o2)c1)c1cnccn1 | 825 |
| Cc1cc(C)cc(-c2nc(-c3cccc(-c4ccnn4C)c3)no2)c1 | 1340 |
| CCCc1nnc(-c2cccnc2N2CCN(C(=O)c3ccc4ncccc4c3)CC2)o1 | 660 |
| CC(C)NC(=O)CCn1c(=O)c2cc(Cl)ccc2n2c(=O)n(Cc3ccccc3)nc12 | 856 |
| Cc1ccc(NC(=O)Nc2ccc3nncn3c2)cc1 | 700 |
| Cc1ccc(Nc2nccc(N(C)c3ccc4c(C)n(C)nc4c3)n2)cc1S(N)(=O)=O | 685 |
| COc1cccc(OC)c1-c1cc(C(=O)NC2(C(=O)O)C3CC4CC(C3)CC2C4)nn1-c1ccc(C(=O)N(C)CCCN(C)C)cc1C(C)C (stereo not drawn) | 860 |
| O=C(CCC1CCN(c2cc(NC3CC3)ncn2)CC1)NCCc1cccs1 | 656 |

| Structure (SMILES) | RP-LC retention time [s] |
| --- | --- |
| O=C(Nc1ccc(F)c(F)c1)C1CCN(c2cc(N3CCSCC3)ncn2)CC1 | 709 |
| CCOc1cccc(C2c3[nH]c4ccccc4c3CCN2C(=O)c2ccnn2C)c1 (stereo not drawn) | 1050 |
| CCCNC(=O)CSc1ccc(-n2nc3c(c2C)CCC3)nn1 | 865 |
| CCc1nnc(-c2cc(C)n(CC(=O)Nc3ccc(Cl)cc3C)c2C)o1 | 915 |
| CCOC(=O)c1ccccc1NC(=O)Cn1c(=O)n(-c2ccc(F)cc2)c(=O)c2c1cc(C)n2C | 1010 |
| COC(=O)c1ccc(NC(=O)CSc2cc(N3CCN(c4ccc(OC)cc4)CC3)ncn2)cc1 | 926 |
| O=C(NCc1csc(-c2ccccc2)n1)C1CCCN(c2ccc(-c3ccco3)nn2)C1 (stereo not drawn) | 641 |
| CCc1nc(-c2cccc(-c3noc(CNS(=O)(=O)c4ccc(Cl)cc4)n3)c2)cs1 | 1130 |
| COc1ccc(C2=Nc3ccccc3N(CC(=O)Nc3cc(OC)ccc3OC)C(=O)C2)cc1 | 1020 |
| Fc1ccc(Nc2c(-c3ccc(Cl)cc3)nc3cnccn23)cc1 | 963 |
| COc1ccc(Cl)cc1NS(=O)(=O)c1ccc(-c2nnc(C3CCC3)o2)o1 | 958 |
| CCn1c(CCNC(=O)c2ccc(OC)cc2C)nc2cccnc21 | 733 |
| CCC1CN(C(=O)N2CCC(C(=O)NCCCOC(C)C)CC2)c2cc(C)ccc2O1 (stereo not drawn) | 873 |
| Cc1ccc(NC(=O)C2(C)Oc3cccnc3NC2=O)c(C)c1 (stereo not drawn) | 727 |
| CC(C)(C)c1ccc(OCC(O)CN2CCN(C(=O)c3ccccc3)CC2)cc1 (stereo not drawn) | 608 |
| O=C(CCN(CC1CCCO1)C(=O)c1cccc(Br)c1)N1CCNCC1 (stereo not drawn) | 610 |
| CCN1CCn2c(nc3cc(C(=O)NCc4ccccc4C(F)(F)F)ccc32)C1=O | 741 |
| COc1cccc(-c2nc(-c3cccc(-c4ccn[nH]4)c3)no2)c1 | 1010 |
| CC(C)c1ccccc1NS(=O)(=O)c1cc(-c2nc(C(C)(C)C)cs2)cs1 | 603 |
| Cc1ccc(CNC(=O)Cn2c(C)cc(-c3nnc(C4CCC4)o3)c2C)cc1C | 947 |
| Cc1cc(N2CCN(S(=O)(=O)c3ccccc3)CC2)nc(NC2CCCCC2)n1 | 776 |
| CCC(C)NC(=O)Cn1nc(Cc2ccncc2)c2ccccc2c1=O (stereo not drawn) | 572 |

| Structure (SMILES) | RP-LC retention time [s] |
| --- | --- |
| COc1ccc(NC(=O)c2cc(C(C)C)n3nccc3n2)c(C)c1 | 1250 |
| O=C(NCCc1ccccc1)N1CCc2nc(-c3ccc(F)cc3)ncc2C1 | 900 |
| CN(C)CCCNC(=O)C1CCN(c2nc3ccc(-c4cccs4)nc3s2)CC1 | 647 |
| Cc1ccc(C)c(N2CCN(c3ccnc(SCC(=O)Nc4c(C)cccc4Cl)n3)CC2)c1 | 942 |
| CCS(=O)(=O)Nc1ccc(C2(C(=O)NCc3ccc(F)cc3F)CCCCC2)cc1 | 972 |
| Cc1ccccc1-c1ccc(N2CCC(C(=O)NCc3ccco3)CC2)nn1 | 605 |
| COc1ccc(-c2nc(-c3cn(Cc4ccc(F)cc4)nn3)no2)cc1OC | 914 |
| CC(C)(C)C(=O)Nc1ccc(C(=O)NCCNC(=O)Nc2ccccc2Cl)cc1 | 738 |
| COC(=O)c1nnn(-c2cc(C)ccc2OC)c1C(=O)OC | 862 |
| CN1C(=O)C2(CCN(C(=O)Nc3ccc4c(c3)OCCO4)C2)c2ccccc21 (stereo not drawn) | 748 |
| COC(=O)c1ncn2c1C(=O)N(c1cc(C)ccc1C)C(C)(C(=O)NCc1ccccc1)C2 (stereo not drawn) | 731 |
| CCc1nnc(-c2cn(CC(=O)NCc3ccc(C)o3)c3ccccc23)o1 | 740 |
| CN(C)[C@@H]1CN(C(=O)CCc2c[nH]c3ccccc23)C[C@H]1CO | 573 |
| O=C(CCl)NC1(C(=O)O)CCCC1 | 661 |
| O=C(c1ccco1)N1CCN(C(=O)c2sc3ncccc3c2-n2cccc2)CC1 | 753 |
| CCOc1ccccc1NC(=O)N1CCCC1c1nc(-c2ccc(OC)cc2)no1 (stereo not drawn) | 1100 |
| O=C(CCNc1c(-c2ccc(F)cc2)nc2cnccn12)NCC1CC1 | 647 |
| Cc1c2c(nn1-c1ccc(SCc3cccc(F)c3)nn1)CCC2 | 1280 |
| CCn1c(=O)sc2cc(S(=O)(=O)N3CCC(C(=O)Nc4ccccc4F)CC3)ccc21 | 899 |
| O=C(NCc1ccc(F)cc1Cl)C1CCN(c2cncnc2N2CCCC2)CC1 | 665 |
| CCCS(=O)(=O)N1CCCC(Cn2c(C3CC3)nc3cccnc32)C1 (stereo not drawn) | 658 |
| CCc1nccn1Cc1noc(-c2ccc(C)c(C)c2)n1 | 672 |
